{
  "source": "patent US20090216029A1",
  "about": "“PROCESS FOR THE PRODUCTION OF ATORVASTATIN CALCIUM IN AMORPHOUS FORM” (priority 2008, published 2009)",
  "conditions": "25° C./60% relative humidity for 3 months",
  "note": "Counter-ions that a name gives are not always drawn.",
  "procedure": "• HPLC method: • Column: Kromasil C18, 250×4.6 mm, 5 μm • Mobile phase: • A: 388.5 ml of acetonitrile+31.5 ml of tetrahydrofuran++580 ml of 0.05 molar ammonium dihydrogen orthophosphate solution in water • B: 92.5 ml of acetonitrile+7.5 ml of tetrahydrofuran+300 of methanol++100 ml of 0.05 molar ammonium dihydrogen orthophosphate solution in water • Gradient:",
  "data": [
    {"smiles": "CC(C)c1c(C(=O)Nc2ccccc2)c(-c2ccccc2)c(-c2ccc(F)cc2)n1CC[C@@H](O)C[C@@H](O)CC(=O)O", "note": "(relative stereo) [amorphous atorvastatin calcium, [R—(R*,R*)]-2-(4-fluorophenyl)-β,δ-dihydroxy-5-(1-methylethyl)-3-phenyl-4-[(phenylamino)carbonyl]-1H-pyrrole-1-heptanoic acid, calcium salt (2:1)]", "values": [
      {"measurement": "Total impurities and/or degradants after storage", "value": "not more than 1.0%"}
    ]}
  ]
}
